According to patent US20110230472A1, “RING-FUSED AZOLE DERIVATIVE HAVING PI3K-INHIBITING ACTIVITY” (Shionogi & Co., Ltd., priority 2008, published 2011):

Biological target: PI-3 kinase γ (Homo sapiens, UniProt P48736)
Test: PI3Kγ inhibitory activity, PI3-kinase HTRF assay (inhibition ratio)
Format: biochemical
Conditions: 0.5 h; PI3Kγ, compound at 50 μM
Method: The PI3Kγ inhibitory activity of a compound was evaluated using PI3-kinase HTRF™ assay (Millipore) according to the following procedure:
To each well of a testing plate, 5 μL of a compound solution containing 10% DMSO (200 μmol/L or 40 μmol/L as the concentration of the compound), 5 μL of a substrate solution (40 μmol/L phosphatidylinositol (4,5)-bisphosphate, 20 mmol/L MgCl2, 10 mmol/L DTT), and 5 μL of a enzyme solution (80 μg/mL PI-3 kinase γ, 10 mmol/L MgCl2, 5 mmol/L DTT) were added, and then allowed to stand for 10 minutes.
Then, 5 μL of a reaction solution (40 μmol/L ATP, 10 mmol/L MgCl2, 5 mmol/L DTT) was added thereto. After reacting for 30 minutes at room temperature, 5 μL of a solution containing EDTA and biotinylated phosphatidylinositol (3,4,5)-triphosphate were added to quench the reaction.
5 μL of a detection reagent containing a europium-labeled anti-GST antibody, the GST-tagged PH domain, and allophycocyanin-labeled streptavidin was added thereto. After 18 hours, HTRF (excitation wavelength: 330 nm, measured wavelengths: 620 nm and 665 nm) was measured.
HTRF ratio was defined as the value obtained by dividing the amount of fluorescence obtained at the measured wavelength 665 nm by the amount of fluorescence obtained at 620 nm. The HTRF ratio in the absence of a compound was defined as 100% activity and the HTRF ratio in the absence of PI-3 kinase γ was defined as 0% activity to calculate an inhibition ratio which was defined as the PI3Kγ inhibitory activity of a compound at 50 μmol/L or 10 μmol/L.

PI-3 kinase γ, sequence (P48736 whole entry): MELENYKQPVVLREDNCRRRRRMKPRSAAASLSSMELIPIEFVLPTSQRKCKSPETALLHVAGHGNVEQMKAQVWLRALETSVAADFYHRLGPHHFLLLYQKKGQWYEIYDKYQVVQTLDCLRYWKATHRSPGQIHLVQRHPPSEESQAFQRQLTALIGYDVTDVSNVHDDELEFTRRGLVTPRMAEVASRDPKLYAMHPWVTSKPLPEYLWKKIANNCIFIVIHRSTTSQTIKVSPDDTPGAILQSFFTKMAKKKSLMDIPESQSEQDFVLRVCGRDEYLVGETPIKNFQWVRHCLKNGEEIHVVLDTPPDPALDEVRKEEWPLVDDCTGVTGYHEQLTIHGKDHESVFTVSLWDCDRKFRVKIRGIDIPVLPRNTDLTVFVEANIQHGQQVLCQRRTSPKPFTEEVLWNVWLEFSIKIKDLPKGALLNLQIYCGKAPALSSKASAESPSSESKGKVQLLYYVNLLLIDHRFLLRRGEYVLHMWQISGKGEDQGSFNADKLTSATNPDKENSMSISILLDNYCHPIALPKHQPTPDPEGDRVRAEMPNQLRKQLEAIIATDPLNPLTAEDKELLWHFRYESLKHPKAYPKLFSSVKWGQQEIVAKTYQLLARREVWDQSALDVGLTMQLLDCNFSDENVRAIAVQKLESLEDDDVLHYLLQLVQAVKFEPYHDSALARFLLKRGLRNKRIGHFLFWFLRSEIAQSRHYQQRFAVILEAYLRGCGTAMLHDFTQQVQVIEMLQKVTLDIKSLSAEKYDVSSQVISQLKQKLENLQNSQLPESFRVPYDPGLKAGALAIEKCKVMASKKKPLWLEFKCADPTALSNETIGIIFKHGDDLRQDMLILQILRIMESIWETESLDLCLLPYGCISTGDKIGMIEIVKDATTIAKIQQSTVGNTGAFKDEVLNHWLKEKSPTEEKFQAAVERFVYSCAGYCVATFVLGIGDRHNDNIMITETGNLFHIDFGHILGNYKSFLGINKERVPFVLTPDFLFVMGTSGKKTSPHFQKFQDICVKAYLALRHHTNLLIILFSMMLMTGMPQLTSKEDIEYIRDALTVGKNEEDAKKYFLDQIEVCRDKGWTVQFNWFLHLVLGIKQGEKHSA

| inhibition at 50 µM | Structure (SMILES) |
| --- | --- |
| ≥ 95% | CC(=O)Nc1cc2n(n1)CCN2C(=O)c1ccccc1 [Compound I-2] |
| ≥ 95% | COc1ccc(Nc2cc3n(n2)CCN3C(=O)c2ccccc2)cc1 [Compound I-4] |
| 89% | CNC(=O)Nc1cc2n(n1)CCN2C(=O)c1ccccc1 [Compound I-5] |
| 90% | CC(=O)Nc1cc2n(C(=O)c3ccccc3)ccn2n1 [Compound I-6] |
| ≥ 95% | CNC(=O)Nc1cc2n(n1)CCN2C(=O)OC(C)(C)C [Compound I-8] |
| 77% | CNC(=O)Nc1cc2n(n1)CCN2C(=O)c1ccc2c(c1)CCO2 [Compound I-35] |
| 73% | CNC(=O)Nc1cc2n(n1)CCN2C(=O)c1nc2ccccc2s1 [Compound I-40] |
| ≥ 95% | CNC(=O)Nc1cc2n(n1)CCN2c1ccccc1 [Compound I-50] |
| ≥ 95% | CNC(=O)Nc1cc2n(n1)CCN2c1cccc(Cl)c1 [Compound I-67] |
| ≥ 95% | CNC(=O)Nc1cc2n(n1)CCN2c1cccnc1 [Compound I-80] |
| 75% | CNC(=O)Nc1cc2n(n1)CCN(c1cccc(C(=O)OC)c1)C2 [Compound I-81] |
| ≥ 95% | CCOC(=O)c1cccc(N2CCn3nc(NC(=O)NC)cc32)c1 [Compound I-83] |
| ≥ 95% | CNC(=O)Nc1cc2n(n1)CCN2c1cccc(-c2cnco2)c1 [Compound I-84] |
| ≥ 95% | CCOC(=O)c1ccc(N2CCn3nc(NC(=O)NC)cc32)cc1 [Compound I-85] |
| 85% | CNC(=O)Nc1cc2n(n1)CCN2c1ccccn1 [Compound I-88] |
| ≥ 95% | CNC(=O)Nc1cc2n(n1)CCN2c1cccc(C(=O)O)c1 [Compound I-91] |
| ≥ 95% | CNC(=O)Nc1cc2n(n1)CCN2c1ccc(C(=O)O)cc1 [Compound I-97] |
| ≥ 95% | CNC(=O)Nc1cc2n(n1)CCN2c1ccc(Cl)cc1 [Compound I-102] |
| ≥ 95% | CNC(=O)Nc1cc2n(n1)CCN2c1cccc(O)c1 [Compound I-105] |
| 83% | CNC(=O)Nc1cc2n(n1)CCN2c1ccc(OC)cc1 [Compound I-114] |
| ≥ 95% | CNC(=O)Nc1cc2n(n1)CCN2c1nc2ccccc2s1 [Compound I-115] |
| 81% | CCOC(=O)CNC(=O)Nc1cc2n(n1)CCN2c1ccccc1 [Compound I-129] |
| ≥ 95% | O=C(O)CNC(=O)Nc1cc2n(n1)CCN2c1ccccc1 [Compound I-132] |
| ≥ 95% | O=C(Nc1cc2n(n1)CCN2c1ccccc1)c1ccccc1 [Compound I-135] |
| ≥ 95% | CC(=O)Nc1cc2n(n1)CCN2c1ccccc1 [Compound I-140] |
| ≥ 95% | CNC(=O)Nc1cc2n(n1)CCN2c1ccncc1 [Compound I-141] |
| ≥ 95% | CNC(=O)Nc1cc2n(n1)CCN2c1ccc(C(=O)OC)c(OC)c1 [Compound I-144] |
| ≥ 95% | CNC(=O)Nc1cc2n(n1)CCN2c1cc(Br)cc(C(=O)OC)c1 [Compound I-146] |
| ≥ 95% | CNC(=O)Nc1cc2n(n1)CCN2c1ccc(C(=O)O)c(OC)c1 [Compound I-148] |
| ≥ 95% | CNC(=O)Nc1cc2n(n1)CCN2c1cc(Br)cc(C(=O)O)c1 [Compound I-149] |

The next lines start with the compound.

| Structure (SMILES) | inhibition at 50 µM |
| --- | --- |
| CC(=O)Nc1cc2n(C(=O)OC(C)(C)C)ccn2n1 [Compound I-7] | ≥ 95% |
| CNC(=O)Nc1cc2n(n1)CCN2C(=O)Oc1ccccc1 [Compound I-51] | 87% |
| CCOC(=O)CNC(=O)Nc1cc2n(n1)CCN2C(=O)OC(C)(C)C [Compound I-57] | ≥ 95% |
| CC(C)(C)OC(=O)N1CCn2nc(NC(=O)NCC(=O)O)cc21 [Compound I-59] | 94% |
| CNC(=O)Nc1cc2n(n1)CCN(c1cncc(OC)c1)C2 [Compound I-65] | ≥ 95% |
| CNC(=O)Nc1nc2c(s1)CN(C(=O)OC(C)(C)C)CC2 [Compound I-66] | 92% |
| CNC(=O)Nc1cc2n(n1)CCN2c1cncc(OC)c1 [Compound I-79] | ≥ 95% |
| CNC(=O)Nc1cc2n(n1)CCN(c1cccnc1)C2 [Compound I-86] | 90% |
| CNC(=O)Nc1nc2c(s1)CN(c1nccc(OC)n1)CC2 [Compound I-93] | 92% |
| CNC(=O)Nc1nc2c(s1)CN(c1ccnc(Cl)n1)CC2 [Compound I-94] | ≥ 95% |
| CNC(=O)Nc1nc2c(s1)CN(c1nccc(C(F)(F)F)n1)CC2 [Compound I-95] | 93% |
| CNC(=O)Nc1nc2c(s1)CN(c1cc(C(=O)OC)nc(Cl)n1)CC2 [Compound I-100] | ≥ 95% |
| CNC(=O)Nc1nc2c(s1)CN(c1cc(C(=O)O)nc(Cl)n1)CC2 [Compound I-101] | ≥ 95% |
| CNC(=O)Nc1nc2c(s1)CN(c1cc(Cl)ncn1)CC2 [Compound I-106] | ≥ 95% |
| CNC(=O)Nc1nc2c(s1)CN(c1cc(OC)nc(OC)n1)CC2 [Compound I-107] | ≥ 95% |
| CNC(=O)Nc1nc2c(s1)CN(c1cc(C(N)=O)nc(Cl)n1)CC2 [Compound I-108] | ≥ 95% |
| CNC(=O)Nc1nc2c(s1)CN(c1cc(C(=O)NC3CCCC3)nc(Cl)n1)CC2 [Compound I-110] | ≥ 95% |

| Structure (SMILES) | inhibition at 50 µM |
| --- | --- |
| CNC(=O)Nc1nc2c(s1)CN(c1cc(Cl)nc(Cl)n1)CC2 [Compound I-111] | ≥ 95% |
| COC(=O)c1cc(N2CCc3nc(NC(C)=O)sc3C2)nc(Cl)n1 [Compound I-116] | ≥ 95% |
| CC(C)(C)OC(=O)N1CCc2nc(NC(=O)Nc3cccc(Cl)c3)sc2C1 [Compound I-117] | 76% |
| CNC(=O)Nc1nc2c(s1)CN(c1cc(C(=O)NC)nc(Cl)n1)CC2 [Compound I-119] | ≥ 95% |
| CNC(=O)Nc1nc2c(s1)CN(c1cc(N)nc(Cl)n1)CC2 [Compound I-122] | 76% |
| CNC(=O)Nc1nc2c(s1)CN(c1cncc(Cl)n1)CC2 [Compound I-123] | ≥ 95% |
| COC(=O)c1cc(N2CCc3nc(NC(=O)c4cccc(Cl)c4)sc3C2)nc(Cl)n1 [Compound I-126] | ≥ 95% |
| CNC(=O)Nc1cc2n(n1)CCN2c1cc(C(=O)OC)nc(Cl)n1 [Compound I-127] | 79% |
| CNC(=O)Nc1nc2c(s1)CN(c1cc(Cl)nc(SC)n1)CC2 [Compound I-128] | ≥ 95% |
| CC(=O)Nc1cc2n(n1)CCN2C(=O)OC(C)(C)C [Compound I-130] | ≥ 95% |
| CNC(=O)Nc1cc2n(n1)CCN(c1cc(OC)nc(OC)n1)C2 [Compound I-133] | ≥ 95% |
| Nc1cc(N2CCc3nc(NC(=O)c4cccc(Cl)c4)sc3C2)nc(Cl)n1 [Compound I-137] | 87% |
| CNC(=O)Nc1nc2c(s1)CN(c1cc(Oc3ccccc3)nc(OC)n1)CC2 [Compound I-138] | ≥ 95% |
| COc1cccc(N2CCn3nc(NC(C)=O)cc32)c1 [Compound I-139] | ≥ 95% |
| COc1cc(N2CCc3nc(NC(=O)NCCC(=O)OC(C)(C)C)sc3C2)nc(OC)n1 [Compound I-143] | ≥ 95% |
| CNC(=O)Nc1nc2c(s1)CN(c1cc(OC)nc(N)n1)CC2 [Compound I-145] | ≥ 95% |
| CNC(=O)Nc1nc2c(s1)CN(c1cc(Oc3ccccc3)nc(SC)n1)CC2 [Compound I-147] | ≥ 95% |
